From patent publication US20130197030A1, “Substituted 1,3-Dioxanes and There Uses” (Evolva Sa, priority 2007, published 2013)

Target: T1, Human Recombinant (E. coli) PPARgamma (Homo sapiens, UniProt P37231)
T1 construct: host or cells: E. coli
T1 sequence (P37231 1-505): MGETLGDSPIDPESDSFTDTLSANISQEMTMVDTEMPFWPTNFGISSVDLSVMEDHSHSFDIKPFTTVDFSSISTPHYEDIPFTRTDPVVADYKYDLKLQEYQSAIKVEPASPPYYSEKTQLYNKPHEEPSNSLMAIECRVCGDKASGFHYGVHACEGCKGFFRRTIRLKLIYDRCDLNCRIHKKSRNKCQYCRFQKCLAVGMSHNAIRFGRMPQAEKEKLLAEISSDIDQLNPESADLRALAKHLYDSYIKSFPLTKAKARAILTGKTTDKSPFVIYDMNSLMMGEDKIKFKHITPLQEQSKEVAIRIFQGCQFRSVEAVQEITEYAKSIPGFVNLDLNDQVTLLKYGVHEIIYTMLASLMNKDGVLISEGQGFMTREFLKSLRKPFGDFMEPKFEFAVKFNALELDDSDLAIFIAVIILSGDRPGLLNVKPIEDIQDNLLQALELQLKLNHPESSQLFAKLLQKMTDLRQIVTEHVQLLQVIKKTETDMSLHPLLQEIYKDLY
Assay: PPAR gamma binding assay
Settings: at 30 μM
Method: Incubation: 120 min. at 4° C.
The results are expressed as a percent of control specific binding ((measured specific binding/control specific binding)×100) obtained in the presence of the test compounds. The IC50 values (concentration causing a half-maximal inhibition of control specific binding) and Hill coefficients (nil) were determined by non-linear regression analysis of the competition curves generated with mean replicate values using Hill equation curve fitting (Y=D+[(A−D)/(1+(C/C50)nH)], where Y=specific binding, D=minimum specific binding, A=maximum specific binding, C=compound concentration, C50=IC50, and nH=slope factor). This analysis was performed using a software developed at Cerep (Hill software) and validated by comparison with data generated by the commercial software SigmaPlot 4.0 for Windows® (© 1997 by SPSS Inc.). The inhibition constants (Ki) were calculated using the Cheng Prusoff equation (Ki=IC50/(1+(L/KD)), where L=concentration of radioligand in the assay, and KD=affinity of the radioligand for the receptor).

PPARγ binding: no binding
SMILES: O=C(O)CC/C=C\C[C@H]1CO[C@@H](c2ccccc2Cl)O[C@H]1c1ccccc1O [Compound B, (Z)-6-((2R,4R,5S)-2-(2-chlorophenyl)-4-(2-hydroxyphenyl)-1,3-dioxan-5-yl)hex-4-enoic acid, reference compound]
